From patent publication US20240002429A1, “PRODRUG OF 5a-HYDROXY-6ß-[2-(1H-IMIDAZOL-4-YL)ETHYLAMINO]CHOLESTAN-3ß-OL AND PHARMACEUTICAL COMPOSITIONS COMPRISING SAME FOR USE IN THE TREATMENT OF CANCER” (priority 2020, published 2024) come the findings set out here.

Series [1] in a line: Pharmacokinetic study of DX117 (LC/MS in plasma). The class given is in vivo. To be noted: rat, 50 mg/kg, administered compound assayed. The text has this:
The following study is a determination by LC/MS in plasma of the various molecules over 3 days (11 measurement points at the end). The graphs are always presented in comparison with DX101, which is the reference. […]

Series [2] deals with BT-474 human mammary tumor cells. Briefly: Cytotoxicity on BT-474 cells, trypan blue. To be noted: BT-474, trypan blue, 48 h. The class given is cell-based. On the procedure:
The cellular viability tests were also carried out on BT-474 human mammary tumor cells (characterized as being positive triples HER2+, ER+, PR+). The BT-474 cells are in a cell culture medium identical to the preceding example and are seeded in 24-well plates at 70 000 cells per well, for determination of cellular viability using trypan blue, or in 96-well plates at 13 000 cells per well for determination of cellular viability using the MTT or LDH assay. After 96 hours (h) of culture in normal conditions, i.e. in an incubator at a temperature of 37° C. at 5% CO2, the BT-474 cells are treated for 48 h with DX101, DX107, and DX113 at 100 nM, 1 μM, 2.5 μM and 10 μM. A control is also carried out using the protocol described above but without treatment with the molecules DX101, DX107, DX113, DX117, DX119, DX121 or DX131.
After trypsin digestion for 10 minutes at 37° C., cell survival was quantified, also by a trypan blue assay with automatic counting with the Biorad TC20 equipment (TC20™ Automated Cell Counter). The trypan blue assay is based on the cell membrane integrity, which is broken in the dead cells. Trypan blue stains the dead cells blue. The Biorad TC20 cell counter counts the proportion of blue cells and non-blue cells, relative to the cell percentages. The percentage viability is then determined in each well relative to the untreated cells and the IC50 is determined as explained in the preceding example. The percentage viability of the BT-474 cells was determined using the MTT and LDH assay, carried out as described in the preceding example.

Each structure is given as a SMILES string.

By IC50 is commonly meant the concentration at which inhibition is half-maximal. The low end stands for greater potency in that assay, the high end for weaker potency in that assay.

Compound `CC(C)CCC[C@@H](C)[C@H]1CC[C@H]2[C@@H]3C[C@@H](NCCc4c[nH]cn4)[C@@]4(O)C[C@@H](O)CC[C@]4(C)[C@H]3CC[C@]12C` [DX101, 5α-hydroxy-6β-[2-(1H-imidazol-4-yl)-ethylamino]-cholestan-3β-ol, reference compound] came in with a Concentration max in series [1] of 150 nM. The Area under curve in series [1] (0-72 h) was 3019.
Regarding `CCC(=O)O[C@H]1CC[C@]2(C)[C@H]3CC[C@]4(C)[C@@H]([C@H](C)CCCC(C)C)CC[C@H]4[C@@H]3C[C@@H](NCCc3c[nH]cn3)[C@@]2(O)C1` [DX107, 5α-hydroxy-6β-[2-(1H-imidazol-4-yl)ethylamino]cholestan-3β-yl propionate], the “Mean LogIC50 (±SEM)” value in series [2] (log of IC50 in μM) is reported as 0.66 ± 0.04. For the same compound, in series [2] (Homo sapiens), the IC50 amounted to 4.58 µM.
